In patent US10039729B2, “Use of kukoamine A and kukoamine B” (Tianjin Chase Sun Pharmaceutical Co., Ltd., priority 2010, dated 2018):

Test system: mice challenged by heat-killed Escherichia coli
Experiment: Protection on mice challenged by lethal dose of heat-killed Escherichia coli
Type: in vivo, Kunming mice
Experimental: Preparation of heat-killed Escherichia coli (E. coli) ATCC 35218: Bacteria culture was performed according to Clinical Laboratory Procedures. Single bacterial colony of E. coli from LB agar plates were picked and transferred into 10 mL sterile liquid of LB broth using a sterile inoculating loop, and cultivated at 37° C. in a shaker (250 rpm). After medium become turbid, these culture medium were then transferred to 2000 mL of fresh LB medium and cultivated at 37° C. in a shaker (250 rpm) for 12 h. The suspension was collected, transferred into 1000 ml centrifuge tube, and centrifuged at 5000 rpm for 15 min. The supernatant was discarded. The bacteria were collected, washed and resuspended into sterile saline, and then centrifuged again under the same condition. Above-mentioned process was repeated thrice. The bacteria pellet was resuspended with a pipet in 50 ml sterile saline, transferred into 100 ml saline bottle, and boiled in electric furnace for 30 min. Then the suspension of heat-killed Escherichia coli was obtained. The suspension of E. coli was diluted by 100 fold, and measured OD value at 600 nm on nucleic acid protein analyzer. Conversion was made according to the regression equation of OD value and concentration, and the suspension was diluted according to the conversion result. Then the operating fluids for mice injection were obtained.
Observation of CL-4b protection on mice challenged by heat-killed Escherichia coli: A total of […] Kunming mice (18˜20 g), half male and half female, were divided into three groups randomly: CL-4b control group, heat-killed E. coli group and CL-4b treatment group. Each group has 10 mice, half male and half female. CL-4b control group was injected with CL-4b (60 mg/kg) and sterile saline; heat-killed E. coli group was injected with heat-killed Escherichia coli (1.0×10^10 CFU/ml) and sterile saline; CL-4b treatment group was injected with CL-4 ([…]) at 10 min after heat-killed E. coli injection. The injection volume of each solution was 200 μl per 20 g body weight via tail vein. […]
(1) Single dose experiment: Experiment 1: A total of 40 Kunming mice (18-20 g), half male and half female, were divided into two groups randomly, heat-killed E. coli control group and KB (30 mg/kg) treatment group; each group has 20 mice; after animal weighing, heat-killed E. coli group was injected with heat-killed Escherichia coli (200 μl per 20 g body weight) and sterile saline (200 μl per 20 g body weight); KB treatment group was injected with KB (200 μl per 20 g body weight) at 5 min after heat-killed E. coli was injected; the injection doses of heat-killed E. coli were 1.0×10^11 CFU/kg, and injection doses of KB were 30 mg/kg. […]

[1] = single dose KB 60 mg/kg, E. coli 1.0×10^11 CFU/kg

## NCCCN(CCCCNCCCNC(=O)CCc1ccc(O)c(O)c1)C(=O)CCc1ccc(O)c(O)c1 [KB, Kukoamine B]
KB 1.25, 2.5 and 5 mg/kg every 8 h for 3 days
  survival rates, multiple dose: improve survival rates
KB 15, 30 and 60 mg/kg 5 min after heat-killed E. coli
  mortality rate in 7 days, single dose: decreased with the increasing doses of KB
[1]
  protective effect, KB given after 2 h (4, 6 and 8 h): no longer has a significant protective effect
  survival rate, KB given 2 h after heat-killed E. coli: still can increase the survival rate
